Results reported in ChEMBL document CHEMBL4130400, “Development of GLUT4-selective antagonists for multiple myeloma therapy” (Eur J Med Chem, 2017).
Blank lines part the entries; values can stand above or below the compound they belong to. Calls of active or inactive are those of the source. The rule behind the calls is not given here. Where a SMILES comes first, the peptide text is derived from it. The star is where a group is joined. Cbz = O=C(OCc1ccccc1)*

Legend:
[1] = test system: KMS-11; assay: Antiproliferative activity against human KMS11 cells over-expressing GFP after 72 hrs by CellTiter-Glo assay; assay type: functional, cell-based; details: KMS-11, 72 h
[2] = target: T1, Solute carrier family 2, facilitated glucose transporter member 4 (Homo sapiens, UniProt P14672); assay: Antagonist activity at human GLUT4 expressed in HEK293 cells transfected with GLUT1 shRNA assessed as inhibition of [3H]2-deoxy-D-glucose uptake preincubated for 5 mins followed by [3H]2-deoxy-D-glucose addition and measured after 6 mins; assay type: cell-based
T1 sequence (P14672 whole entry): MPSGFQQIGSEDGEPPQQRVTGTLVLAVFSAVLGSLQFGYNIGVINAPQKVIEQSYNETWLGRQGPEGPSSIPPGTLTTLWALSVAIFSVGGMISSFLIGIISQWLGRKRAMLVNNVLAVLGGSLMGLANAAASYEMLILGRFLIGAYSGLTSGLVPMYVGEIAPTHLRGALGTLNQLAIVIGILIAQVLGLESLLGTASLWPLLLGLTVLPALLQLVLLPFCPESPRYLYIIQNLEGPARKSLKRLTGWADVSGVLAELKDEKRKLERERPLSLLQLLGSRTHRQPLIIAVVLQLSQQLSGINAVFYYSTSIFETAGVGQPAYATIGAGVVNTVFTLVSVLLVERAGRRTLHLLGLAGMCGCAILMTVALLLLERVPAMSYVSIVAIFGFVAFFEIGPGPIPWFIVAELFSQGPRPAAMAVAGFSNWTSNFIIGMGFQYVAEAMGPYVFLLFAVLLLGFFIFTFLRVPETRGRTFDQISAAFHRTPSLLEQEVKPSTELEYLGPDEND

[3] = test system: Bone marrow cell; assay: Cytotoxicity in multiple myeloma patient derived CD38(-)/CD45(-) non-myeloma bone marrow cells at 10 uM in presence of dexamethasone incubated for 48 hrs by CellTiter-Glo assay; assay type: cell-based; details: human
[4] = target: T2, Solute carrier family 2, facilitated glucose transporter member 4 (Homo sapiens) (UniProt P14672); assay: Antagonist activity at GLUT4 in human MM1S cells assessed as increase in sensitivity to dexamethasone-induced cytotoxicity by measuring cell death at 10 uM after 72 hrs by CellTiter-Glo assay; assay type: cell-based
T2 sequence (whole entry): T1 sequence (P14672 whole entry)

[5] = test system: Bone marrow cell; assay: Cytotoxicity in multiple myeloma patient derived CD38(-)/CD45(-) non-myeloma bone marrow cells at 10 uM incubated for 48 hrs by CellTiter-Glo assay; assay type: cell-based; details: human
[6] = target: T2, Solute carrier family 2, facilitated glucose transporter member 4 (Homo sapiens); assay: Antagonist activity at GLUT4 in human MM1S cells assessed as increase in sensitivity to melphalan-induced cytotoxicity by measuring cell death at 10 uM after 72 hrs by CellTiter-Glo assay; assay type: cell-based
[7] = test system: JJN-3; assay: Inhibition of [3H]2-deoxy-D-glucose uptake in human JJN-3 cells transfected with GLUT4 shRNA preincubated for 5 to 6 mins followed by [3H]2-deoxy-D-glucose addition measured after 4 to 6 mins; assay type: functional, cell-based
[8] = test system: JJN-3; assay: Antiproliferative activity against human JJN-3 cells transfected with GLUT4 shRNA assessed as growth inhibition at 15 uM aftter 72 hrs by trypan blue dye-based cell counting analysis; assay type: functional
[9] = target: T3, GLUT1 (solute carrier family 2, facilitated glucose transporter member 1) (Rattus norvegicus, UniProt P11167); assay: Displacement of ATB-BMPA from rat C-terminal 6His/Myc-tagged GLUT1 expressed in HEK293 cell low density microsome assessed as ATB-BMPA binding level at 20 uM preincubated for 10 mins followed by ATB-BMPA addition measured after 10 mins relative to control; assay type: cell-based; details: probe ATB-BMPA, read-out: Activity
T3 sequence (P11167 whole entry): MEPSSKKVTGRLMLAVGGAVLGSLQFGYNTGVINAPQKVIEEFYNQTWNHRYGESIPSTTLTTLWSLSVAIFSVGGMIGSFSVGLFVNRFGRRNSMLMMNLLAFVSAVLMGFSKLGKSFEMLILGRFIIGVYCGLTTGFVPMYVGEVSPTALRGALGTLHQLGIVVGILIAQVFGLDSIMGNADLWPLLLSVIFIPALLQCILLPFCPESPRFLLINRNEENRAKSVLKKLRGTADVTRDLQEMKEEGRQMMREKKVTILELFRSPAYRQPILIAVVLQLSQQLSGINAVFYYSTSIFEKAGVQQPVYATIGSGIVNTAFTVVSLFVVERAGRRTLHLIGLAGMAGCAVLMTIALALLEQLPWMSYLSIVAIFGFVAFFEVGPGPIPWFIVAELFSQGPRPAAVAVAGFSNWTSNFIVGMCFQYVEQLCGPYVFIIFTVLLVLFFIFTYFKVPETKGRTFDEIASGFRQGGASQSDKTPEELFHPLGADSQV

[10] = target: T2, Solute carrier family 2, facilitated glucose transporter member 4 (Homo sapiens); assay: Antagonist activity at GLUT4 in multiple myeloma patient derived CD38+ and phyocerythrin-negative myeloma cells assessed as increase in sensitivity to dexamethasone-induced cytotoxicity by measuring cell death at 10 uM after 48 hrs by CellTiter-Glo assay
[11] = target: T4, Solute carrier family 2, facilitated glucose transporter member 1 (Homo sapiens, UniProt P11166); assay: Antagonist activity at human GLUT1 expressed in HEK293 cells transfected with GLUT1 shRNA assessed as inhibition of [3H]2-deoxy-D-glucose uptake preincubated for 5 mins followed by [3H]2-deoxy-D-glucose addition and measured after 6 mins; assay type: cell-based
T4 sequence (P11166 whole entry): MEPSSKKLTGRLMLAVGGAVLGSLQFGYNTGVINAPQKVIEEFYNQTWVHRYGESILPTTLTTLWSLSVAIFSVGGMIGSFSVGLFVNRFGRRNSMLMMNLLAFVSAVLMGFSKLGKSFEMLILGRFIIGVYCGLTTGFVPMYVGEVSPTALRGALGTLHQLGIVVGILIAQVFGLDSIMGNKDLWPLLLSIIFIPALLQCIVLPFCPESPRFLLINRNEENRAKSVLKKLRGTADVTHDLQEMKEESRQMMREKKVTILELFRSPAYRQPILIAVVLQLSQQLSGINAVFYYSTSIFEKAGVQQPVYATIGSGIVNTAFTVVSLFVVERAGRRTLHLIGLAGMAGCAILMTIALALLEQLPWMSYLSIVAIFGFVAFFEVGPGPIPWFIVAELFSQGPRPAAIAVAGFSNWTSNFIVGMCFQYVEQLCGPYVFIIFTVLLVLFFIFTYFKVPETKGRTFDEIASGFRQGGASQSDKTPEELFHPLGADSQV

[12] = target: T5, Solute carrier family 2, facilitated glucose transporter member 4 (Rattus norvegicus) (UniProt P19357); assay: Displacement of ATB-BMPA from rat C-terminal 6His/Myc-tagged GLUT4 expressed in HEK293 cell low density microsome assessed as ATB-BMPA binding level at 20 uM preincubated for 10 mins followed by ATB-BMPA addition measured after 10 mins relative to control; assay type: cell-based
T5 sequence (whole entry): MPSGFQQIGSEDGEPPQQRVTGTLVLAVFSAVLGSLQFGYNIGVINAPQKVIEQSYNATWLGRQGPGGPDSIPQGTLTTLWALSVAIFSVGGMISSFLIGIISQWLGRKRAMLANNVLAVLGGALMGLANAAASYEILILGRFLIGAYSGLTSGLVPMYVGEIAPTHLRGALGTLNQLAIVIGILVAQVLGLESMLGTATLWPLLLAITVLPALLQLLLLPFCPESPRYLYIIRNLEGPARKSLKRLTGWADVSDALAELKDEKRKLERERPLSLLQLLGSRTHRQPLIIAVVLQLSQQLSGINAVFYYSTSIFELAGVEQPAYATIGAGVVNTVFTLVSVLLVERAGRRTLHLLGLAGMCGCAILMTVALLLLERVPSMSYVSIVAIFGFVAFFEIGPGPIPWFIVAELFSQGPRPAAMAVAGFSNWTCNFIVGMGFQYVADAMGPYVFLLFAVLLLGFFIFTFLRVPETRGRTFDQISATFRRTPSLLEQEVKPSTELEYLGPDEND

[13] = target: T2, Solute carrier family 2, facilitated glucose transporter member 4 (Homo sapiens); assay: Antagonist activity at GLUT4 in human JJN-3 cells assessed as reduction in MCL-1 protein expression at 15 uM after 18 hrs by immunoblot analysis; assay type: cell-based
[14] = target: T2, Solute carrier family 2, facilitated glucose transporter member 4 (Homo sapiens); assay: Antagonist activity at GLUT4 in multiple myeloma patient derived CD38+ and phyocerythrin-negative myeloma cells assessed as increase in sensitivity to ABT-199-induced cytotoxicity by measuring cell death at 10 uM after 48 hrs by CellTiter-Glo assay
[15] = target: T6, Solute carrier family 2, facilitated glucose transporter member 8 (Homo sapiens, UniProt Q9NY64); assay: Antagonist activity at human GLUT8 expressed in HEK293 cells transfected with GLUT1 shRNA assessed as inhibition of [3H]2-deoxy-D-glucose uptake preincubated for 5 mins followed by [3H]2-deoxy-D-glucose addition and measured after 6 mins; assay type: cell-based
T6 sequence (Q9NY64 whole entry): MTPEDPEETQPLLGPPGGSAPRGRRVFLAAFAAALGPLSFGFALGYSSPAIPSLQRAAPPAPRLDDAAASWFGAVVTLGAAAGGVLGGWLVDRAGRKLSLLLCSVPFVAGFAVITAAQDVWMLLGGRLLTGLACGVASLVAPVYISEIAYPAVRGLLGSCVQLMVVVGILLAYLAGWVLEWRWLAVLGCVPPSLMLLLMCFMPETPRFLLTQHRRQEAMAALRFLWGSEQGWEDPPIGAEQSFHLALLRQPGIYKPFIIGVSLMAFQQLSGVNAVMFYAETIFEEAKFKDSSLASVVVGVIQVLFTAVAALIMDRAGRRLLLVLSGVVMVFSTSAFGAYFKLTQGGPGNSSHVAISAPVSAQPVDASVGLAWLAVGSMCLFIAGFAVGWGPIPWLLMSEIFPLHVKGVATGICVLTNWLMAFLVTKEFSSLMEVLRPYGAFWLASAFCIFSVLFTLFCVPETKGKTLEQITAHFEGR

[16] = target: T2, Solute carrier family 2, facilitated glucose transporter member 4 (Homo sapiens); assay: Antagonist activity at GLUT4 in human JJN-3 cells assessed as increase in sensitivity to ABT-199-induced cytotoxicity by measuring cell death at 10 uM after 72 hrs by CellTiter-Glo assay; assay type: cell-based
[17] = test system: Bone marrow cell; assay: Cytotoxicity in multiple myeloma patient derived CD38(-)/CD45(-) non-myeloma bone marrow cells at 10 uM in presence of ABT-199 incubated for 48 hrs by CellTiter-Glo assay; assay type: cell-based; details: human
[18] = target: T2, Solute carrier family 2, facilitated glucose transporter member 4 (Homo sapiens); assay: Antagonist activity at GLUT4 in human JJN3 cells assessed as reduction in [3H]2-deoxy-D-glucose uptake preincubated for 5 to 6 mins followed by [3H]2-deoxy-D-glucose addition measured after 4 to 6 mins; assay type: cell-based
[19] = target: T2, Solute carrier family 2, facilitated glucose transporter member 4 (Homo sapiens); assay: Antagonist activity at GLUT4 in human […] cells assessed as increase in sensitivity to ABT-199-induced cytotoxicity by measuring cell death at 10 uM after 72 hrs by CellTiter-Glo assay; assay type: cell-based
[20] = target: T2, Solute carrier family 2, facilitated glucose transporter member 4 (Homo sapiens); assay: Antagonist activity at GLUT4 in human L363 cells assessed as reduction in MCL-1 protein expression at 15 uM after 18 hrs by immunoblot analysis; assay type: cell-based
[21] = test system: KMS-11; assay: Cytotoxicity against human KMS11 cells after 72 hrs by AnnexinV/DAPI staining-based flow cytometric analysis; assay type: functional, cell-based
[22] = target: T5, Solute carrier family 2, facilitated glucose transporter member 4 (Rattus norvegicus); assay: Displacement of ATB-BMPA from rat C-terminal 6His/Myc-tagged GLUT4 expressed in HEK293 cell low density microsome at 20 uM preincubated for 10 mins followed by ATB-BMPA addition measured after 10 mins; assay type: cell-based
[23] = target: T7, Solute carrier family 2, facilitated glucose transporter member 1 (Rattus norvegicus) (UniProt P11167); assay: Displacement of ATB-BMPA from rat C-terminal 6His/Myc-tagged GLUT1 expressed in HEK293 cell low density microsome at 20 uM preincubated for 10 mins followed by ATB-BMPA addition measured after 10 mins; assay type: cell-based
T7 sequence (whole entry): T3 sequence (P11167 whole entry)

[24] = target: T8, Solute carrier family 2, facilitated glucose transporter member 4 (Rattus norvegicus, UniProt P19357); assay: Antagonist activity at GLUT4 in rat adipocytes assessed as reduction in insulin-stimulated [3H]2-deoxyglucose uptake preincubated for 1 min followed by [3H]2-deoxyglucose addition measured after 1 min by liquid scintillation counting analysis; assay type: cell-based
T8 sequence (P19357 whole entry): T5 sequence (whole entry)

Compound: O=C(c1ccc(Cl)cc1)N(Cc1ccncc1)Cc1cccc(OCCc2ccc(F)cc2)c1
IC50 [1]: 13.1 µM

Compound: COc1ccc(C(=O)N(Cc2ccncc2)Cc2cccc(OCCc3ccc(Br)cc3)c2)cc1
IC50 [1]: 8.4 µM

IC50 [2]: 11 µM
Compound: COc1ccc(C(=O)N(Cc2ccncc2)Cc2cccc(OCc3cccc(OC)c3)c2)cc1
IC50 [1]: 16.9 µM

Compound: COc1ccc(C(=O)N(Cc2ccncc2)Cc2cccc(OCC3CCCCC3)c2)cc1
IC50 [1]: 19.7 µM

Compound: COc1ccc(C(=O)N(Cc2ccncc2)Cc2cccc(OCc3ccc(F)cc3)c2)cc1
IC50 [1]: 22.7 µM

activity at 10 min, 20 µM [9]: 35%
IC50 [11]: > 100 µM
Activity [12]: 64%
inhibition [13]: inactive
IC50 [15]: > 100 µM
inhibition [18]: Active
inhibition [20]: Active
Compound: COc1ccc(CC(=O)N(Cc2ccncc2)Cc2cccc(OCCc3ccc(F)cc3)c2)cc1
Activity [3]: Non-Toxic
inhibition [4]: Active
Activity [5]: Non-Toxic
Activity [6]: Active
inhibition [7]: Active
Activity [8]: inactive
inhibition [10]: Active
inhibition [14]: Active
IC50 [1]: 13.4 µM
inhibition [16]: Active
Activity [17]: Non-Toxic
inhibition [19]: Active
Activity [21]: Active

Activity [22]: Active
IC50 [11]: > 100 µM
IC50 [15]: 6 µM
IC50 [2]: 1.7 µM
Activity [23]: Active
Compound: COc1ccc(C(=O)N(Cc2ccncc2)Cc2cccc(OCCc3ccc(F)cc3)c2)cc1

Ki [24]: 26 µM
Compound: CCOC(=O)[C@H](Cc1ccccc1)NC(=O)[C@H](Cc1ccccc1)NC(=O)[C@H](Cc1cnc[nH]1)NC(=O)OCc1ccccc1 (Cbz-His-Phe-Phe-OEt)

Compound: COc1ccc(C(=O)N(Cc2ccncc2)Cc2cccc(OCC(=O)c3ccc(Cl)cc3)c2)cc1
IC50 [1]: 18.5 µM
